One assay has as its target sGC α1/β1 heterodimer (Homo sapiens (Human), UniProt Q02108+Q02153). The assay can be described thus: Cell-based sGC functional assay (CASA assay), cGMP by HTRF. To be noted: CHO-K1/sGC cells; for Emax: CHO-K1, cGMP production as percentage of maximum of compound A (set to 100%), read-out: % Activation; for EC50: inflection point of cGMP production, 4P fit, read-out: IP. The source says: Cell-Based sGC Functional Assay (Cyclic GMP Assay for sGC Activator: CASA Assay)
Soluble guanylate cyclase (sGC) is a heme-containing enzyme that converts GTP to secondary messenger cGMP. Increases in cGMP levels affect several physiological processes including vasorelaxation through multiple downstream pathways. […] Heme-dependent activators (HDAs) preferentially target sGC containing a ferrous heme group. To determine the effect of sGC activators on enzyme activity, the CASA assay was developed to monitor the generation of cGMP in a cell line that stably expresses the heterodimeric sGC protein.
A CHO-K1 cell line stably expressing the sGC α1/β1 heterodimer was generated using a standard transfection protocol. The cDNA's encoding human sGC α1 and β1 were cloned in pIRES hyg and pIRES neo respectively using standard molecular biology techniques. The plasmids pIRES hyg and pIRES neo plasmids were obtained from Clontech. CHO-K1 cells were transfected with plasmids pIREShyg-hsGCα1 and pIRESneo-hsGCβ1 simultaneously using FUGENE reagent. Clones that stably express both subunits were selected with hygromycin and neomycin for ˜2 weeks. The clone chosen for the assay was designated CHO-K1/sGC. CHO-K1/sGC cells were maintained in F-K12 medium containing 10% heat-inactivated Fetal Bovine Serum (FBS), 100 μg/mL penicillin/streptomycin, 0.5 mg/mL hygromycin and 0.25 mg/mL G418. The cells were then cryopreserved in liquid nitrogen. On the day of the assay, the cells were thawed and resuspended in EBSS Assay Buffer (Sigma, E3024) supplemented with 5 mM MgCl2, 10 mM HEPES (4-(2-hydroxyethyl)piperazine-1-ethanesulfonic acid) and 0.05% BSA (bovine serum albumin) and cell density was then adjusted to 2.25×10^5/mL with EAB. IBMX (3-isobutyl-1-methylxanthin, 0.5 mM) was added to inhibit degradation of cGMP. Compounds were diluted from DMSO stock solutions and added to the assay at a final DMSO concentration of 2.5%. Cells were pre-incubated in the presence and absence of 1 μM of Diethylenetriamine/nitric oxide adduct (DETA-NO; Sigma, 17018) for 30 min at 25° C. Compounds were subsequently added and incubated for 1 hr at 37° C. At the end of the incubation period, the reaction was terminated and the cells were lysed with the detection reagents from Cisbio Kits. The level of intracellular cGMP was determined using an HTRF-based assay kit (CisBio, 62GM2PEC), which detects the displacement of a fluorescence labeled cGMP from its specific antibody. The cGMP produced by test compounds was directly compared to the maximum cGMP production (this value was set to equal 100% activation) of the published sGC compound A (Example 1 in WO 2010/065275, published Jun. 10, 2010).
The test compounds' activities were then expressed as a percentage of compound A, the standard in every experiment. This percent activation was calculated either in the presence or absence of DETA-NO which was then plotted. Inflection points (IP) and maximum fold induction was derived using Abase analysis software for 4P fit.
On the technique in general: In TR-FRET formats the signal depends on donor and acceptor labels being close together.

In assay [1] the target is human recombinant sGC enzyme (Homo sapiens (Human), UniProt Q02108+Q02153). The assay can be described thus: SEC competition binding assay with [3H] Compound B radioligand. As to conditions: displacement of 1.6 nM [3H] Compound B, 24 h at 37° C. As for the experimental part:
The binding potencies of sGC compounds to the human recombinant sGC enzyme were determined in a Size Exclusion Chromatography (SEC) competition binding assay using [^3H] Compound B as the radioligand. [^3H] Compound B was prepared using a standardardized tritium exchange procedure. The parent (non-labeled) molecule was first iodinated then a Pd-catalyzed iodine to tritium exchange provided the labeled compound.
Method: The binding buffer was composed of 50 mM triethanolamine pH 7.4, 3 mM MgCl2, 0.025% BSA, 2 mM dithiothreitol (DTT), 300 μM DETA/NO and 400 μM GTP. Assays were conducted in 96-well plates in a total volume of 200 μL. Recombinant human sGC protein (40 ng) was incubated with 1.6 nM [^3H] Compound B for 24 h at 37° C. in the presence and absence of various concentrations of sGC testing compounds delivered as DMSO solutions to give a total of 1% organic solvent content. Non-specific binding was defined by competition with 1 μM of Compound B. After the incubation period, the binding mixtures were loaded onto the gel-filtration plate (ThermoFischer Cat. No. 89808) pre-equilibrated with binding buffer and spun at 1000×g for 3 min at 4° C. on a Bench top centrifuge. The collected eluates in White Frame Clear Well Isoplates (Perkin Elmer Cat #6005040) received 100 μl of UltimaGold scintillation cocktail. The sealed plates were shaken vigorously and span, and counted after 6 hs with a Wallac Microbeta TriLux 1450 LSC & Luminescence Counter (Perkin Elmer). Data from competition experiments were analyzed to determine Ki values using one site—fit Ki equation.

The Ki is the dissociation constant of the complex between target and ligand, obtained from inhibition or displacement.

Turning to `CC1(c2ccc(O)c(F)c2)C(=O)Nc2nc(-c3cn4ccnc4c(Cc4cccc(F)c4)n3)nc(N)c21` (stereo not drawn) [Example 125-B, 4-Amino-5-(3-fluoro-4-hydroxyphenyl)-2-{8-[(3-fluorophenyl)methyl]-imidazo[1,2-a]pyrazin-6-yl}-5-methyl-5,7-dihydro-6H-pyrrolo[2,3-d]-pyrimidin-6-one], on sGC α1/β1 heterodimer, the Emax was 164% and the EC50 was found to be 601 nM. Moreover, the Ki in assay [1] came to 0.508 nM.

`CC1(c2ccc(Cl)c(O)c2)C(=O)Nc2nc(-c3cn4ncnc4c(CCC(F)(F)C(F)(F)F)n3)nc(NCC(O)C(F)(F)F)c21` (single isomer, unassigned) [Example 133-AA, 5-(4-Chloro-3-hydroxy-phenyl)-5-methyl-2-(8-(3,3,4,4,4-pentafluoro-butyl)-[1,2,4]triazolo-[1,5-a]pyrazin-6-yl)-4-[(3,3,3-trifluoro-2-hydroxypropyl)amino]-5,7-dihydro-6H-pyrrolo-[2,3-d]pyrimidin-6-one]: on sGC α1/β1 heterodimer, the Emax was determined as 38% and the EC50 stood at 1290 nM. Further, in assay [1], the Ki came to 2.34 nM.

Consider `CCCCc1nc(-c2nc(N)c3c(n2)NC(=O)C3(C)c2ccc(F)c(O)c2)cn2ncnc12` (stereo not drawn) [Example 62-B, 4-Amino-2-(8-butyl-[1,2,4]triazolo[1,5-a]pyrazin-6-yl)-5-(4-fluoro-3-hydroxyphenyl)-5-methyl-5,7-dihydro-6H-pyrrolo[2,3-d]pyrimidin-6-one], for which, at sGC α1/β1 heterodimer, the Emax was 97% and the EC50 is 49 nM. Further, the Ki in assay [1] worked out at 2.21 nM.

`CC1(c2ccc(Cl)c(O)c2)C(=O)Nc2nc(-c3cn4ccnc4c(Cc4cc(F)cc(F)c4)n3)nc(N)c21` (stereo not drawn) [Example 36-A, 4-Amino-5-(4-chloro-3-hydroxyphenyl)-2-{8-[(3,5-difluorophenyl)methyl]imidazo[1,2-a]pyrazin-6-yl}-5-methyl-5,7-dihydro-6H-pyrrolo[2,3-d]pyrimidin-6-one]: at sGC α1/β1 heterodimer, the Emax was found to be 116% and the EC50 came out at 381 nM. Further, in assay [1], the Ki was determined as 0.393 nM.

Take `CC1(c2cc(O)c(Cl)c(F)c2)C(=O)Nc2nc(-c3cn4ccnc4c(Cc4cc(F)ccc4F)n3)nc(N)c21` (stereo not drawn) [Example 6-B, 4-Amino-5-(4-chloro-3-fluoro-5-hydroxyphenyl)-2-{8-[(2,5-difluorophenyl)methyl]imidazo[1,2-a]pyrazin-6-yl}-5-methyl-5,7-dihydro-6H-pyrrolo[2,3-d]pyrimidin-6-one]: at sGC α1/β1 heterodimer, the Emax was determined as 113% and the EC50 worked out at 94 nM. For the same compound, the Ki in assay [1] was 0.094 nM.

Consider `CC(C)CCc1nc(-c2nc(N)c3c(n2)NC(=O)C3(C)c2ccc(F)c(O)c2)cn2ccnc12` (stereo not drawn) [Example 47-B, 4-Amino-5-(4-fluoro-3-hydroxyphenyl)-2-(8-isopentylimidazo[1,2-a]pyrazin-6-yl)-5-methyl-5,7-dihydro-6H-pyrrolo[2,3-d]pyrimidin-6-one], for which, on sGC α1/β1 heterodimer, the Emax came to 103% and the EC50 was 70 nM. The inhibitory constant (Ki) in assay [1] stood at 0.676 nM.

Take `CCCCc1nc(-c2nc(N)c3c(n2)NC(=O)C3(C)c2cccc(O)c2)cn2ncnc12` (stereo not drawn) [Example 68-B, 4-Amino-2-(8-butyl-[1,2,4]triazolo[1,5-a]pyrazin-6-yl)-5-(3-hydroxyphenyl)-5-methyl-5,7-dihydro-6H-pyrrolo[2,3-d]pyrimidin-6-one]: on sGC α1/β1 heterodimer, the Emax was found to be 96% and the EC50 was determined as 46 nM. The inhibition constant (Ki) in assay [1] was 2.92 nM.

For `CC1(c2ccc(O)c(Cl)c2)C(=O)Nc2nc(-c3cn4ccnc4c(Cc4ccc(F)cc4)n3)nc(N)c21` (stereo not drawn) [Example 60-B, 4-Amino-5-(3-chloro-4-hydroxyphenyl)-2-{8-[(4-fluorophenyl)methyl]imidazo[1,2-a]pyrazin-6-yl]-5-methyl-5,7-dihydro-6H-pyrrolo[2,3-d]pyrimidin-6-one], at sGC α1/β1 heterodimer, the Emax turned out to be 138% and the EC50 was 4380 nM. The Ki in assay [1] was 1.92 nM.

For `CC1(c2ccc(Cl)c(O)c2)C(=O)Nc2nc(-c3cn4ccnc4c(CCCC(F)(F)F)n3)nc(N)c21` (stereo not drawn) [Example 55-A, 4-Amino-5-(4-chloro-3-hydroxyphenyl)-5-methyl-2-(8-(4,4,4-trifluorobutyl)imidazo[1,2-a]pyrazin-6-yl)-5,7-dihydro-6H-pyrrolo[2,3-d]pyrimidin-6-one], on sGC α1/β1 heterodimer, the Emax was 113% and the EC50 was found to be 969 nM. Also, the Ki in assay [1] turned out to be 1.21 nM.

For the compound `CC1(c2ccc(O)c(F)c2)C(=O)Nc2nc(-c3cn4ccnc4c(Cc4ccccc4F)n3)nc(N)c21` (stereo not drawn) [Example 24-B, 4-Amino-5-(3-fluoro-4-hydroxyphenyl)-2-{8-[(2-fluorophenyl)methyl]imidazo[1,2-a]pyrazin-6-yl}-5-methyl-5,7-dihydro-6H-pyrrolo[2,3-d]pyrimidin-6-one], at sGC α1/β1 heterodimer, the Emax amounted to 88% and the EC50 stood at 752 nM. In assay [1], the inhibition constant Ki came out at 0.241 nM.

Take `CC(C)CCc1nc(-c2nc(N)c3c(n2)NC(=O)C3(C)c2cc(O)ccn2)cn2ncnc12` (stereo not drawn) [Example 119-B, 4-Amino-5-(4-hydroxypyridin-2-yl)-2-(8-isopentyl-[1,2,4]-triazolo[1,5-a]pyrazin-6-yl)-5-methyl-5,7-dihydro-6H-pyrrolo-[2,3-d]pyrimidin-6-one]: at sGC α1/β1 heterodimer, the Emax was determined as 75% and the EC50 was 681 nM. The Ki in assay [1] turned out to be 2.76 nM.

On to `CC1(c2cc(O)c(C(F)(F)F)cn2)C(=O)Nc2nc(-c3cn4ccnc4c(Cc4cccc(F)c4)n3)nc(N)c21` (stereo not drawn) [Example 145-B, 4-amino-2-(8-{3-fluorobenzyl}imidazo-[1,2-a]pyrazin-6-yl)-5-(4-hydroxy-5-(trifluoromethyl)pyridin-2-yl)-5-methyl-5,7-dihydro-6H-pyrrolo-[2,3-d]pyrimidin-6-one], for which, at sGC α1/β1 heterodimer, the Emax was 91% and the EC50 was 2440 nM. Moreover, the Ki in assay [1] stood at 0.416 nM.

`CC1(c2ccc(O)c(Cl)c2)C(=O)Nc2nc(-c3cn4ccnc4c(CC4CCCCC4)n3)nc(N)c21` (stereo not drawn) [Example 89-B, 4-Amino-5-(3-chloro-4-hydroxyphenyl)-2-(8-(cyclohexylmethyl)imidazo[1,2-a]pyrazin-6-yl)-5-methyl-5,7-dihydro-6H-pyrrolo[2,3-d]pyrimidin-6-one]: at sGC α1/β1 heterodimer, the Emax is 127% and the EC50 came to 809 nM. Besides, in assay [1], the Ki amounted to 0.823 nM.

Turning to `Cc1cn2cc(-c3nc(N)c4c(n3)NC(=O)C4(C)c3ccc(Cl)c(O)c3)nc(Cc3cccc(F)c3)c2n1` (stereo not drawn) [Example 99-A, 4-Amino-5-(4-chloro-3-hydroxyphenyl)-2-{8-[(3-fluorophenyl)methyl]-2-methylimidazo[1,2-a]pyrazin-6-yl}-5-methyl-5,7-dihydro-6H-pyrrolo[2,3-d]pyrimidin-6-one], at sGC α1/β1 heterodimer, the Emax was 97% and the EC50 is 553 nM. Besides, the Ki in assay [1] came out at 0.803 nM.

(Values after patent US10780092B2, “Fused pyrazine derivatives useful as soluble guanylate cyclase stimulators” (Merck Sharp & Dohme Corp., priority 2016, dated 2020).)
